Measurements from patent US4604239A, “Antibiotics” (Eli Lilly and Company, priority 1985, dated 1986).
In brackets after ≈: the same amount, converted by molar mass.

Legend:
[1] = tested on: Propionibacterium acnes; experiment: agar-dilution MIC; assay type: cell-based
Text: Antibiotic A41030 factors A, B and C have also been tested and found to be active against a genus of anaerobic bacteria identified as Propionibacterium acnes.

[2] = tested on: Peptococcus asaccharolyticus; experiment: agar-dilution MIC; assay type: cell-based
Protocol: (§1) The MIC values were determined by the agar-dilution method, and are recorded in Table 15, which follows.

[3] = tested on: Peptococcus constellatus; experiment: agar-dilution MIC; assay type: cell-based; conditions: Pc. constellatus 1468; Table 15
Protocol: as §1

[4] = tested on: Peptococcus magnus; experiment: agar-dilution MIC; assay type: cell-based; conditions: Table 15
Protocol: as §1

[5] = tested on: Peptococcus prevoti; experiment: agar-dilution MIC; assay type: cell-based; conditions: Table 15
Protocol: as §1

[6] = tested on: Peptostreptococcus intermedius; experiment: agar-dilution MIC; assay type: cell-based
[7] = tested on: S. pneumoniae; experiment: experimental bacterial infection in mice; assay type: in vivo; conditions: two doses subcutaneously
Protocol: All of the A41030 factors tested have shown in vivo antimicrobial activity against experimental bacterial infections. When two doses of test compound were administered subcutaneously to mice in illustrative infections, the activity observed is measured as an ED50 value [effective dose in mg./kg. to protect fifty percent of the test animals: See Warren Wick, et al., J. Bacteriol. 81, 233-235 (1961)].

[8] = tested on: Bacteroides corrodens; experiment: agar-dilution MIC; assay type: cell-based; conditions: Bacteroides corrodens 1874; Table 14
[9] = tested on: Bacteroides vulgatis; experiment: agar-dilution MIC; assay type: cell-based; conditions: Bacteroides vulgatis 1211; Table 14
[10] = tested on: Enterobacter aerogenes; experiment: agar-dilution MIC; assay type: cell-based; conditions: Enterobacter aerogenes C32; Table 17
Text: The results after reading the which follows.

[11] = tested on: Streptococcus sp. ATCC 10389; experiment: agar-dilution MIC; assay type: cell-based; conditions: end point after 24 hours, Table 18
Text: (§2) The in vitro activity of antibiotic A41030 factors A and B against a number of representative aerobic, gram-positive bacteria, including Streptococcus sp. Group D, has been determined using a standard agar-dilution assay.

[12] = tested on: Streptococcus sp. Group B; experiment: agar-dilution MIC; assay type: cell-based; conditions: Streptococcus sp. Group B 5; end point after 24 hours; Table 18
Text: as §2

[13] = tested on: Haemophilus parainfluenzae; experiment: agar-dilution MIC; assay type: cell-based; conditions: end point after 24 hours, Table 18
[14] = P. acnes 104, 24-hour, Table 13
[15] = P. acnes 5170, 24-hour, Table 13
[16] = P. acnes 5176, 24-hour, Table 13
[17] = P. acnes 5187, 24-hour, Table 13
[18] = P. acnes 5197, 24-hour, Table 13
[19] = P. acnes 5227, 24-hour, Table 13
[20] = P. acnes 5228, 24-hour, Table 13
[21] = P. acnes 5229, 24-hour, Table 13
[22] = P. acnes 5292, 24-hour, Table 13
[23] = Propionibacterium acnes 79, Table 14
[24] = Pc. asaccharolyticus 1344, Table 15
[25] = Peptococcus asaccharolyticus 1302, Table 14

Compound | MIC [1, 14] [µg/mL] | MIC [1, 15] [µg/mL] | MIC [1, 16] [µg/mL] | MIC [1, 17] [µg/mL] | MIC [1, 18] [µg/mL] | MIC [1, 19] [µg/mL] | MIC [1, 20] [µg/mL] | MIC [1, 21] [µg/mL] | MIC [1, 22] [µg/mL] | MIC [1, 23] [µg/mL] | MIC [2, 24] [µg/mL] | MIC [2, 25] [µg/mL] | MIC [3] [µg/mL] | MIC ([4]; Pc. magnus 1477) [µg/mL] | MIC ([5]; Pc. prevoti 1293) [µg/mL] | MIC ([5]; Pc. prevoti 1407) [µg/mL] | MIC ([6]; Ps. intermedius 1264, Table 15) [µg/mL] | MIC ([6]; Ps. intermedius 1624, Table 15) [µg/mL] | ED50 [7] [mg/kg] | MIC [8] [µg/mL] | further results
A41030 factor C | 0.25 | ≤ 0.03 | ≤ 0.03 | 0.06 | ≤ 0.03 | 0.06 | 1.0 | 0.5 | 0.06 | ≤ 0.25 | 1.0 | ≤ 0.25 | 0.5 | 0.5 | 0.5 | 1.0 | ≤ 0.03 | 1.0 | 6.7 | 32 | MIC ([1]; P. acnes 5246, 24-hour, Table 13): 0.06 µg/mL; MIC ([4]; Pc. magnus 1401): 0.25 µg/mL; MIC ([4]; Pc. magnus 1421): 0.25 µg/mL; MIC [9]: 32 µg/mL
N[C@H]1C(=O)N[C@@H]2Cc3ccc(c(Cl)c3)Oc3cc4cc(c3O)Oc3ccc(cc3Cl)[C@@H](O)[C@@H]3NC(=O)C(NC(=O)[C@@H]4NC(=O)[C@@H](NC2=O)c2cc(O)cc(c2)Oc2cc1ccc2O)c1ccc(O)c(c1)-c1c(O)cc(O)cc1[C@@H](C(=O)O)NC3=O [A41030 factor B] | 0.25 (≈ 0.209 µM) | ≤ 0.03 | 0.06 (≈ 0.05 µM) | 0.06 (≈ 0.05 µM) | 0.06 (≈ 0.05 µM) | 0.06 (≈ 0.05 µM) | 0.5 (≈ 0.417 µM) | 0.25 (≈ 0.209 µM) | 0.06 (≈ 0.05 µM) | 16 (≈ 13.3 µM) | 0.5 (≈ 0.417 µM) | ≤ 0.25 | 0.5 (≈ 0.417 µM) | 0.25 (≈ 0.209 µM) | 0.25 (≈ 0.209 µM) | 0.5 (≈ 0.417 µM) | ≤ 0.03 | 0.5 (≈ 0.417 µM) | 1.4 | 64 (≈ 53.4 µM) | MIC ([1]; P. acnes 44, 24-hour, Table 13): 0.06 µg/mL (≈ 0.05 µM); MIC ([1]; P. acnes 79, 24-hour, Table 13): 0.06 µg/mL (≈ 0.05 µM); MIC ([1]; P. acnes 101, 24-hour, Table 13): 0.06 µg/mL (≈ 0.05 µM); MIC ([1]; P. acnes 103, 24-hour, Table 13): 0.06 µg/mL (≈ 0.05 µM); MIC ([1]; P. acnes 105, 24-hour, Table 13): 0.06 µg/mL (≈ 0.05 µM); MIC ([1]; P. acnes 106, 24-hour, Table 13): 0.06 µg/mL (≈ 0.05 µM); MIC ([1]; P. acnes 107, 24-hour, Table 13): 0.06 µg/mL (≈ 0.05 µM); MIC ([1]; P. acnes 5191, 24-hour, Table 13): 0.06 µg/mL (≈ 0.05 µM); MIC ([1]; P. acnes 5226, 24-hour, Table 13): 0.5 µg/mL (≈ 0.417 µM); MIC ([6]; Peptostreptococcus intermedius 1264, Table 14): 0.5 µg/mL (≈ 0.417 µM); MIC ([6]; Ps. intermedius 1524, Table 15): 0.25 µg/mL (≈ 0.209 µM); MIC [10]: 64 µg/mL (≈ 53.4 µM); MIC [11]: 0.25 µg/mL (≈ 0.209 µM); MIC [12]: 1 µg/mL (≈ 0.834 µM); MIC ([13]; Haemophilus parainfluenzae 7901): 16 µg/mL (≈ 13.3 µM); MIC ([13]; Haemophilus parainfluenzae 9796): 16 µg/mL (≈ 13.3 µM); MIC [9]: 32 µg/mL (≈ 26.7 µM)
